The record followed here is ChEMBL document CHEMBL5212743, “Selectivity Literature for EUbOPEN Chemogenomics Library wave 3” (2023).

In assay [1] the test system is Mast/stem cell growth factor receptor Kit (Homo sapiens), P10721 [D816V]. The assay can be described thus: Selectivity interaction (KinomeScan (DiscoverX)) EUB0000698a KIT. The settings on record: at 10 µM.
The target of assay [2] is Cyclin-dependent kinase 2 (Homo sapiens, UniProt P24941). The assay can be described thus: Selectivity interaction (Kinase panel (enzymatic assay)) EUB0000698a CDK2.
For assay [3], the target named is Mitogen-activated protein kinase kinase kinase 1 (Homo sapiens) (UniProt Q13233). Description: Selectivity interaction (KinomeScan (DiscoverX)) EUB0000702a MAP3K1. The note with it: at 1 µM.
The test system of assay [4] is Leucine-rich repeat serine/threonine-protein kinase 2 (Homo sapiens), Q5S007 [G2019S]. The assay can be described thus: Selectivity interaction (KinomeScan (DiscoverX)) EUB0000702a LRRK2. The note with it: at 1 µM.
Assay [5] deals with T1, Tyrosine-protein kinase JAK3 (Homo sapiens) (UniProt P52333).
T1 sequence (whole entry): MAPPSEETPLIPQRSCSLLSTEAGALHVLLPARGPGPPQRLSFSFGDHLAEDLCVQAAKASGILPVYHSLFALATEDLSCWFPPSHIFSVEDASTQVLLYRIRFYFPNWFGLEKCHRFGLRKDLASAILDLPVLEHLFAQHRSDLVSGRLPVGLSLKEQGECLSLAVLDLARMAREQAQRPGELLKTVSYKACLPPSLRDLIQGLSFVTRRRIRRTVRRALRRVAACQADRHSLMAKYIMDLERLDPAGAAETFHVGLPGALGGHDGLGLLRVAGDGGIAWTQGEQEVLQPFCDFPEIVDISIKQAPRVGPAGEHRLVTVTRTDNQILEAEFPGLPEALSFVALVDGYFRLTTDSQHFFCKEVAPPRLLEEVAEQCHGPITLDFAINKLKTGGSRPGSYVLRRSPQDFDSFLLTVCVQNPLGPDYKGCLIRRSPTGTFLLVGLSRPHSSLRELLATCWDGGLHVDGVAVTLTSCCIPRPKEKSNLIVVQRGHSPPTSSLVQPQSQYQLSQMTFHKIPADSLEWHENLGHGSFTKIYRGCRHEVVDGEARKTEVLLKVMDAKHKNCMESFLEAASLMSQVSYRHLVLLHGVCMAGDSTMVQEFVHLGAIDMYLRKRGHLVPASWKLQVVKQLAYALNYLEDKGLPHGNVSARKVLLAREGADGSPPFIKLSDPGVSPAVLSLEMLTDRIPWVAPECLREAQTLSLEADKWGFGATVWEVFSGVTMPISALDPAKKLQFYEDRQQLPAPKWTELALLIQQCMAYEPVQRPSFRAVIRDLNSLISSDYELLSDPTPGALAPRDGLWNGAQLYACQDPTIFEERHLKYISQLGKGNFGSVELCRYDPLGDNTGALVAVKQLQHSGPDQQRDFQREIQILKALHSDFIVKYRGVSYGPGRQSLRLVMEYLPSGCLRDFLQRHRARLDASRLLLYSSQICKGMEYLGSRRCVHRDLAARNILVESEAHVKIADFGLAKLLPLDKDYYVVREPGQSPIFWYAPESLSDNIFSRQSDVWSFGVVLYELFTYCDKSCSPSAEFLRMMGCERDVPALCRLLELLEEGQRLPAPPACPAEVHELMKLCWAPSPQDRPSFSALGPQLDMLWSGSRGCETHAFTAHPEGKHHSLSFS
Description: Selectivity interaction (KinomeScan (DiscoverX)) EUB0000702a JAK3. The settings on record: at 1 µM.

The target in assay [6] is Mitogen-activated protein kinase 14 (Homo sapiens, UniProt Q16539). The settings on record: at 10 µM.
Assay [7] has as its target Glycogen synthase kinase-3 beta (Homo sapiens, UniProt P49841). Description: Selectivity interaction (Kinase panel (University of Dundee)) EUB0000169b GSK3B. The note with it: at 10 µM.
The target in assay [8] is Serine/threonine-protein kinase TAO2 (Homo sapiens) (UniProt Q9UL54). Description: Selectivity interaction (KinomeScan (DiscoverX)) EUB0000178b TAOK2. The note with it: at 1 µM.
Sequence of Serine/threonine-protein kinase TAO2 (Homo sapiens) (Q9UL54 whole entry): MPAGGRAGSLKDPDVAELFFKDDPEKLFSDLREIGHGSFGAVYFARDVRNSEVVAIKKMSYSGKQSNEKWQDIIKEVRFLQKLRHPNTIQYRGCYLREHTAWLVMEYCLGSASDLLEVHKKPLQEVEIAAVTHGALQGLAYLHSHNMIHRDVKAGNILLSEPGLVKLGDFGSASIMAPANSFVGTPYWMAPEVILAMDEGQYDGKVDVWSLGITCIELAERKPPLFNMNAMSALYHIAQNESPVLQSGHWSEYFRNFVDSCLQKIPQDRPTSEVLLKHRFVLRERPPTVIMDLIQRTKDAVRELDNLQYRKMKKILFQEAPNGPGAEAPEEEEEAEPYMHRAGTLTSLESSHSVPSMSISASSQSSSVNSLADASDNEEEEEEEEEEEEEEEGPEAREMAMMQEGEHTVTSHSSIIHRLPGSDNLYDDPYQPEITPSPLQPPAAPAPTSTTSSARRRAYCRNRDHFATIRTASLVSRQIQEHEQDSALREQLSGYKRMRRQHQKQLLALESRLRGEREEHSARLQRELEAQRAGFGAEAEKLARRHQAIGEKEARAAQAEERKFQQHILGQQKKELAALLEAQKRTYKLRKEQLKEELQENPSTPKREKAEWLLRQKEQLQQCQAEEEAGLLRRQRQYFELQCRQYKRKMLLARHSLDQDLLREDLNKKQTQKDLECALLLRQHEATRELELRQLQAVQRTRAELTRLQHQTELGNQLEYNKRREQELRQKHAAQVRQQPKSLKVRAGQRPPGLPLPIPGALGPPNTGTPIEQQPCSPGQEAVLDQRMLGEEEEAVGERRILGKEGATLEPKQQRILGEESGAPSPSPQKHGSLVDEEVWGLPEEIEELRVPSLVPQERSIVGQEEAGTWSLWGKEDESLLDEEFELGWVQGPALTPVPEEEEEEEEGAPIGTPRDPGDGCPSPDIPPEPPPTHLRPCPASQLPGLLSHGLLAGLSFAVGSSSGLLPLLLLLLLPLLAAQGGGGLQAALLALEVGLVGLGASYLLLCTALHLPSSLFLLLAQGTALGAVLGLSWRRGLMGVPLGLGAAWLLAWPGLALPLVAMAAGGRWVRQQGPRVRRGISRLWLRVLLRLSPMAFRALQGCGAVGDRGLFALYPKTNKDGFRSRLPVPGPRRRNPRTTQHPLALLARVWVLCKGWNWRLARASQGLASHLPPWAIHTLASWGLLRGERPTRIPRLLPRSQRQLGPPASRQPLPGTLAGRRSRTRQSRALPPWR
Assay [9] has as its target Phosphatidylinositol 4-phosphate 5-kinase type-1 gamma (Homo sapiens) (UniProt O60331). The assay can be described thus: Selectivity interaction (KinomeScan (DiscoverX)) EUB0000178b PIP5K1C. The note with it: at 1 µM.
Assay [10] has as its target Phosphatidylinositol 4,5-bisphosphate 3-kinase catalytic subunit gamma isoform (Homo sapiens, UniProt P48736). Description: Selectivity interaction (KinomeScan (DiscoverX)) EUB0000178b PIK3CG. The settings on record: at 1 µM.
The target of assay [11] is Serine/threonine-protein kinase 24 (Homo sapiens) (UniProt Q9Y6E0). Description: Selectivity interaction (KinomeScan (DiscoverX)) EUB0000178b STK24. The settings on record: at 1 µM.
Sequence of Serine/threonine-protein kinase 24 (Homo sapiens) (Q9Y6E0 whole entry, looked up): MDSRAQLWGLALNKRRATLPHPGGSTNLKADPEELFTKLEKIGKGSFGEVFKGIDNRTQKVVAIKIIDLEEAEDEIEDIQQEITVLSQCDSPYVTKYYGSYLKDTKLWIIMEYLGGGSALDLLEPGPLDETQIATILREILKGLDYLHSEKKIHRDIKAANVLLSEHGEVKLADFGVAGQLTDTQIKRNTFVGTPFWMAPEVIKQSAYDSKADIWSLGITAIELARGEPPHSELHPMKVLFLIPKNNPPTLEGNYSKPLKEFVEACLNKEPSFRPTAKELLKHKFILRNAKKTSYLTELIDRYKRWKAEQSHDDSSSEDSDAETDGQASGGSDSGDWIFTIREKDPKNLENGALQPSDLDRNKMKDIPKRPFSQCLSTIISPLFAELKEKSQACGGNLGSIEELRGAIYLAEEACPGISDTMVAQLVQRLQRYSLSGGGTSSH
Assay [12] addresses Non-receptor tyrosine-protein kinase TYK2 (Homo sapiens, UniProt P29597). Description: Selectivity interaction (KinomeScan (DiscoverX, competition-binding assay)) EUB0000178b TYK2.
For assay [13], the target named is T2, Serine/threonine-protein kinase ULK2 (Homo sapiens) (UniProt Q8IYT8).
T2 sequence (whole entry): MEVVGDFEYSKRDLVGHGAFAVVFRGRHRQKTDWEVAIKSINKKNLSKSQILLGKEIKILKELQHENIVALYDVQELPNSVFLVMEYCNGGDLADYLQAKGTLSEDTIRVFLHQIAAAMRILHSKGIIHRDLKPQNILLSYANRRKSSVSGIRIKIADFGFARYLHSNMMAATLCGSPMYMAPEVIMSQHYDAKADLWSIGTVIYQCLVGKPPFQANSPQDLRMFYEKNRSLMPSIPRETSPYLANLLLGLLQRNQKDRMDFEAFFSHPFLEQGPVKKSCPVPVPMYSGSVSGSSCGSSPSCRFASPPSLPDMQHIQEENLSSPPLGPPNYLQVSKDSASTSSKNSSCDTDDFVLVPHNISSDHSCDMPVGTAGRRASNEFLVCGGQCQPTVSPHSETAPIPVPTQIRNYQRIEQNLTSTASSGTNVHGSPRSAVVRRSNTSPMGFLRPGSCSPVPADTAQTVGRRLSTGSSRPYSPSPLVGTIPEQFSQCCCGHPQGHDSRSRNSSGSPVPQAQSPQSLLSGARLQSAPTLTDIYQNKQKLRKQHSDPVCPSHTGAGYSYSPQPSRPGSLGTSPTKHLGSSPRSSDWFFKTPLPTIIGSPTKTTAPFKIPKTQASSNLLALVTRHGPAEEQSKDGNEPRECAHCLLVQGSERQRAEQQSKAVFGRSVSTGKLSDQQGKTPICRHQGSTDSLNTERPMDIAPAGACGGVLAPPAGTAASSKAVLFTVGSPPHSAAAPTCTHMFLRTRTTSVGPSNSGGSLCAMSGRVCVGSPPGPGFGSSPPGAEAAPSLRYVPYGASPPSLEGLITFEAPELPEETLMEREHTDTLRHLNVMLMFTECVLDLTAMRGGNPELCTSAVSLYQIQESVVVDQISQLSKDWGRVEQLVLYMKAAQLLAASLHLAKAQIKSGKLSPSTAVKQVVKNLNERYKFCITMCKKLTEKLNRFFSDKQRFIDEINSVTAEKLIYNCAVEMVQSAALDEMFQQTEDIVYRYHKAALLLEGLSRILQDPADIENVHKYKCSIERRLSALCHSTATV
Description: Selectivity interaction (KinomeScan (DiscoverX)) EUB0000178b ULK2. The settings on record: at 1 µM.

Molecules are shown by their SMILES.

Sequence of Phosphatidylinositol 4,5-bisphosphate 3-kinase catalytic subunit gamma isoform (P48736 whole entry, looked up, canonical isoform): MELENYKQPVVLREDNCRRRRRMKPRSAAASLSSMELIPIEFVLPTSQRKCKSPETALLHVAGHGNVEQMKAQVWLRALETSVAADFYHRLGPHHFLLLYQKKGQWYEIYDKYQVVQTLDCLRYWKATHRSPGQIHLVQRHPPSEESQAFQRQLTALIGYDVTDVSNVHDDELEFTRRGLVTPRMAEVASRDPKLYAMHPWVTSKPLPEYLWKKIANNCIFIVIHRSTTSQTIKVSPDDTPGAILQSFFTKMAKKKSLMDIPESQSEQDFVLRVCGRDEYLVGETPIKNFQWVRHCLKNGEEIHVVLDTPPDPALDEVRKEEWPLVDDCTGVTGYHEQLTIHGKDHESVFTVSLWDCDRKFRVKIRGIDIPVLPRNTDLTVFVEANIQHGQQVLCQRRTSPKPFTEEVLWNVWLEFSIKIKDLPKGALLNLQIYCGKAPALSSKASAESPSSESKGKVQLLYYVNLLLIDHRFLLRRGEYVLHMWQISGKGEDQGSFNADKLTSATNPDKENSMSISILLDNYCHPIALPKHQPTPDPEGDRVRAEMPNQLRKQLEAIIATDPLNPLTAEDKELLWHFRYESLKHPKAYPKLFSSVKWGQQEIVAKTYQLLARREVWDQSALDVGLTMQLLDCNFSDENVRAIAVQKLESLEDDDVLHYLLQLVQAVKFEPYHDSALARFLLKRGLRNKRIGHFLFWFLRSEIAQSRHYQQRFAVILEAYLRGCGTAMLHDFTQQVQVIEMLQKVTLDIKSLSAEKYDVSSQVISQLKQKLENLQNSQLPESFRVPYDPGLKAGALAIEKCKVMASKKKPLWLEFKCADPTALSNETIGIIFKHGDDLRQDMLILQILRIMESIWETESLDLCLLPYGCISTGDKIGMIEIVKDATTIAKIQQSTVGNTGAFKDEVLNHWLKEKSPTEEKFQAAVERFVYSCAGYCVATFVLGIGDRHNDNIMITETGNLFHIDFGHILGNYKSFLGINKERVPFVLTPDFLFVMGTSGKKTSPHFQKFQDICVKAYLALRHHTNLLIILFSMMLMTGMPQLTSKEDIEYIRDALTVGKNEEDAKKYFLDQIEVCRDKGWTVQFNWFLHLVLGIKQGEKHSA
Sequence of Non-receptor tyrosine-protein kinase TYK2 (P29597 whole entry): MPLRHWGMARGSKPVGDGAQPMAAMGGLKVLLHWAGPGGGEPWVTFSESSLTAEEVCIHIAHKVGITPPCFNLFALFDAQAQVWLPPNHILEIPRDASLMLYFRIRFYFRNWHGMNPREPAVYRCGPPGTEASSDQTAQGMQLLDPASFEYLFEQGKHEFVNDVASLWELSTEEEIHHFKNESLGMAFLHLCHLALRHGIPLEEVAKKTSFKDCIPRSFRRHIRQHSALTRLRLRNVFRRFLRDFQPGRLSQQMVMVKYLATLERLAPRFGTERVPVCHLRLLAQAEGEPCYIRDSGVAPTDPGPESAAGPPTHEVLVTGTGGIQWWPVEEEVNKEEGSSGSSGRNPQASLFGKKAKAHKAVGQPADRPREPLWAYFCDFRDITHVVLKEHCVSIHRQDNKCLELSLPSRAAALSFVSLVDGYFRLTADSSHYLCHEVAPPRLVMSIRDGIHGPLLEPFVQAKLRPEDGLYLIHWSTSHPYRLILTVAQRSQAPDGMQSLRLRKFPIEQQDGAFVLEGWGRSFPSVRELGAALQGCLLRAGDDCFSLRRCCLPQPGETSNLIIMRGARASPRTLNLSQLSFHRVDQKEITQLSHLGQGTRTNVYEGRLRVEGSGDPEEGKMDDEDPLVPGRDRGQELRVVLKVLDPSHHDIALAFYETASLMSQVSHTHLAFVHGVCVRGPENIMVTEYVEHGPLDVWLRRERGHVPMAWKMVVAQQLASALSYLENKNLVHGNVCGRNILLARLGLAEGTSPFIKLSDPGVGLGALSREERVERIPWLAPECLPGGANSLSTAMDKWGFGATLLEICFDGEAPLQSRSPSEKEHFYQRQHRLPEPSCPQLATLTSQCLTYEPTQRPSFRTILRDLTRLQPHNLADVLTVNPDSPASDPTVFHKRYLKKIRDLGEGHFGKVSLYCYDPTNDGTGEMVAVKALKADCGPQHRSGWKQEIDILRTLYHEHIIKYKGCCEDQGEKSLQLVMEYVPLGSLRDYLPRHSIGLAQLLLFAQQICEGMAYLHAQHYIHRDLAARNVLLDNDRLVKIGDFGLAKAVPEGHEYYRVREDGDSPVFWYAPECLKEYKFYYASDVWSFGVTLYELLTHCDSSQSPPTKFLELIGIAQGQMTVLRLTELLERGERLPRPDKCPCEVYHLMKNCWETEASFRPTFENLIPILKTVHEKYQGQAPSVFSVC
Sequence of Mast/stem cell growth factor receptor Kit (Homo sapiens), P10721 [D816V] (P10721 whole entry D816V): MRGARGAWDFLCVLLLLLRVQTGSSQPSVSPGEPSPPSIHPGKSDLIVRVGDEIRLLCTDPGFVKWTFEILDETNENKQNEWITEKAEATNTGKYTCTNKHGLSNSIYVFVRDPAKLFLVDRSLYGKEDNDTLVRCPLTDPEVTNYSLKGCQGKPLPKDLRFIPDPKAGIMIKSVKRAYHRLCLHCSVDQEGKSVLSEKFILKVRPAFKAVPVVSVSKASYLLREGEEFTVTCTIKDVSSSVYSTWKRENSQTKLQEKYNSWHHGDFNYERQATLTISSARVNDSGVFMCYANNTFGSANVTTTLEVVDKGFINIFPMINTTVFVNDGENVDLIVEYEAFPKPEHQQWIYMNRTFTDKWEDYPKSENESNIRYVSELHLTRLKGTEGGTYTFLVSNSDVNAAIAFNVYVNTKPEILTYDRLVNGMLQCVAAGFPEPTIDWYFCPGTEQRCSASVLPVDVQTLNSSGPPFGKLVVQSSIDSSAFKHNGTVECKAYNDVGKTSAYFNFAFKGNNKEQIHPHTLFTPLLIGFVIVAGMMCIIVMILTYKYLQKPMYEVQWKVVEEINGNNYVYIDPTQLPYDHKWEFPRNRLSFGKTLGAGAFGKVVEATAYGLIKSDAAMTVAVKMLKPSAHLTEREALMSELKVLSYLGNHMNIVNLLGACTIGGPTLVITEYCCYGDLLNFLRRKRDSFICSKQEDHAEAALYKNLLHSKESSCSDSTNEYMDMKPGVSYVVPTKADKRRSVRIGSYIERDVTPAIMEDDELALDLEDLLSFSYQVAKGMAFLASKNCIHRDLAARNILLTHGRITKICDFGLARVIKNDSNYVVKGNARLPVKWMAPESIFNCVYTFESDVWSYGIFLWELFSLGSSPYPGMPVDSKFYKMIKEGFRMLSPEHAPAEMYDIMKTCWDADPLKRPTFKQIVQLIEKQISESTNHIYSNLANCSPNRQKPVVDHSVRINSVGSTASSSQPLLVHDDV

`COc1cc2ncn(-c3cc(OCc4ccccc4C(F)(F)F)c(C(N)=O)s3)c2cc1OC` [GW843682X] yielded a % of control in assay [1] of 1.4%. Moreover, in assay [2], the concentration for half-maximal inhibition (IC50) (as a rule, the point on the concentration scale where inhibition reaches its midpoint) stood at 7.6 µM.
Turning to `CN(c1ccnc(CNc2nc(Nc3ccc4c(c3)CC(=O)N4)ncc2C(F)(F)F)n1)S(C)(=O)=O` [PF-00911705], the % of control in assay [3] is 0%; in assay [4], 7.3%; in assay [5], 1.9%.
Regarding `CC[C@@H]1C(=O)N(C)c2cnc(Nc3ccc(C(=O)NC4CCN(C)CC4)cc3OC)nc2N1C1CCCC1`, the % of control in assay [6] is 100%; in assay [7], 69%.
For the compound `CN1C(=O)c2sccc2N(C)c2nc(Nc3ccc(S(N)(=O)=O)cc3)ncc21`, the % of control in assay [8] was found to be 3.4%; in assay [9] it was 10%; in assay [10], 0.15%; in [11] it was 0.9%; in assay [13] it was 4.8%. Besides, the dissociation constant Kd (in general, the equilibrium constant for the complex coming apart) in [12] turned out to be 0.61 µM.
